# Test results published in ChEMBL document CHEMBL1649268, “Comparative in vitro activity profile of oritavancin against recent gram-positive clinical isolates” (2009).
# Experiments:
# Streptococcus [1] = experiment: Antimicrobial activity against Streptococcus Group F clinical isolates by broth microdilution method; assay type: functional
# [2] = system: Staphylococcus epidermidis; experiment: Antimicrobial activity against oxacillin-resistant Staphylococcus epidermidis clinical isolates assessed as resistant isolates by broth microdilution method; assay type: functional
# [3] = system: Staphylococcus epidermidis; experiment: Antimicrobial activity against Staphylococcus epidermidis clinical isolates assessed as resistant isolates by broth microdilution method; assay type: functional
# Streptococcus [4] = experiment: Antimicrobial activity against erythromycin-nonsusceptible Streptococcus Group F clinical isolates by broth microdilution method; assay type: functional
# Staphylococcus aureus [5] = experiment: Antimicrobial activity against oxacillin-susceptible Staphylococcus aureus clinical isolates assessed as resistant isolates by broth microdilution method; assay type: functional
# [6] = Antimicrobial activity against erythromycin-nonsusceptible Streptococcus Group G clinical isolates by broth microdilution method; assay type: functional; conditions: Streptococcus sp. 'group G'
# Streptococcus pyogenes [7] = experiment: Antimicrobial activity against Streptococcus pyogenes clinical isolates by broth microdilution method; assay type: functional
# Streptococcus pneumoniae [8] = experiment: Antimicrobial activity against penicillin-susceptible Streptococcus pneumoniae clinical isolates assessed as resistant isolates by broth microdilution method; assay type: functional
# [9] = system: Staphylococcus epidermidis; experiment: Antimicrobial activity against oxacillin-susceptible Staphylococcus epidermidis clinical isolates assessed as percent susceptible isolates by broth microdilution method; assay type: functional
# Staphylococcus aureus [10] = experiment: Antimicrobial activity against Staphylococcus aureus clinical isolates by broth microdilution method; assay type: functional
# Staphylococcus aureus [11] = experiment: Antimicrobial activity against Staphylococcus aureus clinical isolates assessed as resistant isolates by broth microdilution method; assay type: functional
# Staphylococcus aureus [12] = experiment: Antimicrobial activity against oxacillin-resistant Staphylococcus aureus clinical isolates assessed as percent susceptible isolates by broth microdilution method; assay type: functional
# Streptococcus pyogenes [13] = experiment: Antimicrobial activity against erythromycin-nonsusceptible Streptococcus pyogenes clinical isolates by broth microdilution method; assay type: functional
# Streptococcus pneumoniae [14] = experiment: Antimicrobial activity against Streptococcus pneumoniae clinical isolates assessed as percent susceptible isolates by broth microdilution method; assay type: functional
# Streptococcus agalactiae [15] = experiment: Antimicrobial activity against Streptococcus agalactiae clinical isolates assessed as percent susceptible isolates by broth microdilution method; assay type: functional
# Streptococcus pyogenes [16] = experiment: Antimicrobial activity against Streptococcus pyogenes clinical isolates assessed as resistant isolates by broth microdilution method; assay type: functional
# [17] = system: Staphylococcus epidermidis; experiment: Antimicrobial activity against Staphylococcus epidermidis clinical isolates by broth microdilution method; assay type: functional
# [18] = system: Staphylococcus haemolyticus; experiment: Antimicrobial activity against oxacillin-susceptible Staphylococcus haemolyticus clinical isolates assessed as resistant isolates by broth microdilution method; assay type: functional
# Streptococcus pneumoniae [19] = experiment: Antimicrobial activity against penicillin-resistant Streptococcus pneumoniae clinical isolates assessed as percent susceptible isolates by broth microdilution method; assay type: functional
# Streptococcus pneumoniae [20] = experiment: Antimicrobial activity against penicillin-intermediate Streptococcus pneumoniae clinical isolates assessed as resistant isolates by broth microdilution method; assay type: functional
# Streptococcus pneumoniae [21] = experiment: Antimicrobial activity against Streptococcus pneumoniae clinical isolates by broth microdilution method; assay type: functional
# [22] = Antimicrobial activity against erythromycin-nonsusceptible Streptococcus Group G clinical isolates assessed as percent susceptible isolates by broth microdilution method; assay type: functional, Streptococcus sp. 'group G'
# Streptococcus pneumoniae [23] = experiment: Antimicrobial activity against penicillin-resistant Streptococcus pneumoniae clinical isolates by broth microdilution method; assay type: functional
# [24] = system: Staphylococcus haemolyticus; experiment: Antimicrobial activity against oxacillin-susceptible Staphylococcus haemolyticus clinical isolates by broth microdilution method; assay type: functional
# [25] = Antimicrobial activity against erythromycin-susceptible Streptococcus Group G clinical isolates assessed as percent susceptible isolates by broth microdilution method; assay type: functional, Streptococcus sp. 'group G'
# [26] = Antimicrobial activity against erythromycin-susceptible Streptococcus Group C clinical isolates by broth microdilution method; assay type: functional; conditions: Streptococcus sp. 'group C'
# [27] = Antimicrobial activity against Streptococcus Group C clinical isolates by broth microdilution method; assay type: functional; conditions: Streptococcus sp. 'group C'
# Streptococcus agalactiae [28] = experiment: Antimicrobial activity against erythromycin-nonsusceptible Streptococcus agalactiae clinical isolates assessed as percent susceptible isolates by broth microdilution method; assay type: functional
# Streptococcus pyogenes [29] = experiment: Antimicrobial activity against erythromycin-nonsusceptible Streptococcus pyogenes clinical isolates assessed as percent susceptible isolates by broth microdilution method; assay type: functional
# [30] = Antimicrobial activity against erythromycin-nonsusceptible Streptococcus Group C clinical isolates by broth microdilution method; assay type: functional; conditions: Streptococcus sp. 'group C'
# [31] = Antimicrobial activity against erythromycin-nonsusceptible Streptococcus Group C clinical isolates assessed as percent susceptible isolates by broth microdilution method; assay type: functional, Streptococcus sp. 'group C'
# Streptococcus pneumoniae [32] = experiment: Antimicrobial activity against Streptococcus pneumoniae clinical isolates assessed as resistant isolates by broth microdilution method; assay type: functional
# [33] = Antimicrobial activity against erythromycin-susceptible Streptococcus Group C clinical isolates assessed as percent susceptible isolates by broth microdilution method; assay type: functional, Streptococcus sp. 'group C'
# Streptococcus agalactiae [34] = experiment: Antimicrobial activity against erythromycin-susceptible Streptococcus agalactiae clinical isolates assessed as percent susceptible isolates by broth microdilution method; assay type: functional
# Streptococcus pneumoniae [35] = experiment: Antimicrobial activity against penicillin-susceptible Streptococcus pneumoniae clinical isolates assessed as percent susceptible isolates by broth microdilution method; assay type: functional
# Streptococcus agalactiae [36] = experiment: Antimicrobial activity against erythromycin-susceptible Streptococcus agalactiae clinical isolates by broth microdilution method; assay type: functional
# [37] = Antimicrobial activity against Streptococcus Group G clinical isolates by broth microdilution method; assay type: functional; conditions: Streptococcus sp. 'group G'
# [38] = system: Staphylococcus haemolyticus; experiment: Antimicrobial activity against oxacillin-susceptible Staphylococcus haemolyticus clinical isolates assessed as percent susceptible isolates by broth microdilution method; assay type: functional
# Streptococcus agalactiae [39] = experiment: Antimicrobial activity against Streptococcus agalactiae clinical isolates assessed as resistant isolates by broth microdilution method; assay type: functional
# Streptococcus pneumoniae [40] = experiment: Antimicrobial activity against penicillin-susceptible Streptococcus pneumoniae clinical isolates by broth microdilution method; assay type: functional
# Staphylococcus aureus [41] = experiment: Antimicrobial activity against oxacillin-susceptible Staphylococcus aureus clinical isolates by broth microdilution method; assay type: functional
# Streptococcus pyogenes [42] = experiment: Antimicrobial activity against erythromycin-susceptible Streptococcus pyogenes clinical isolates by broth microdilution method; assay type: functional
# [43] = system: Staphylococcus epidermidis; experiment: Antimicrobial activity against oxacillin-resistant Staphylococcus epidermidis clinical isolates assessed as percent susceptible isolates by broth microdilution method; assay type: functional
# Staphylococcus aureus [44] = experiment: Antimicrobial activity against Staphylococcus aureus clinical isolates assessed as percent susceptible isolates by broth microdilution method; assay type: functional
# Streptococcus pneumoniae [45] = experiment: Antimicrobial activity against penicillin-resistant Streptococcus pneumoniae clinical isolates assessed as resistant isolates by broth microdilution method; assay type: functional
# [46] = system: Staphylococcus epidermidis; experiment: Antimicrobial activity against oxacillin-susceptible Staphylococcus epidermidis clinical isolates by broth microdilution method; assay type: functional
# Streptococcus agalactiae [47] = experiment: Antimicrobial activity against erythromycin-nonsusceptible Streptococcus agalactiae clinical isolates assessed as resistant isolates by broth microdilution method; assay type: functional
# [48] = system: Staphylococcus epidermidis; experiment: Antimicrobial activity against Staphylococcus epidermidis clinical isolates assessed as percent susceptible isolates by broth microdilution method; assay type: functional
# Streptococcus pneumoniae [49] = experiment: Antimicrobial activity against penicillin-intermediate Streptococcus pneumoniae clinical isolates assessed as percent susceptible isolates by broth microdilution method; assay type: functional
# [50] = system: Staphylococcus haemolyticus; experiment: Antimicrobial activity against oxacillin-resistant Staphylococcus haemolyticus clinical isolates assessed as percent susceptible isolates by broth microdilution method; assay type: functional
# Staphylococcus aureus [51] = experiment: Antimicrobial activity against oxacillin-resistant Staphylococcus aureus clinical isolates assessed as resistant isolates by broth microdilution method; assay type: functional
# Streptococcus [52] = experiment: Antimicrobial activity against erythromycin-susceptible Streptococcus Group F clinical isolates by broth microdilution method; assay type: functional
# Streptococcus pyogenes [53] = experiment: Antimicrobial activity against erythromycin-nonsusceptible Streptococcus pyogenes clinical isolates assessed as resistant isolates by broth microdilution method; assay type: functional
# Streptococcus agalactiae [54] = experiment: Antimicrobial activity against erythromycin-nonsusceptible Streptococcus agalactiae clinical isolates by broth microdilution method; assay type: functional
# Streptococcus pyogenes [55] = experiment: Antimicrobial activity against Streptococcus pyogenes clinical isolates assessed as percent susceptible isolates by broth microdilution method; assay type: functional
# [56] = system: Staphylococcus epidermidis; experiment: Antimicrobial activity against oxacillin-resistant Staphylococcus epidermidis clinical isolates by broth microdilution method; assay type: functional
# [57] = system: Staphylococcus haemolyticus; experiment: Antimicrobial activity against oxacillin-resistant Staphylococcus haemolyticus clinical isolates assessed as resistant isolates by broth microdilution method; assay type: functional
# Streptococcus agalactiae [58] = experiment: Antimicrobial activity against Streptococcus agalactiae clinical isolates by broth microdilution method; assay type: functional
# Staphylococcus aureus [59] = experiment: Antimicrobial activity against oxacillin-susceptible Staphylococcus aureus clinical isolates assessed as percent susceptible isolates by broth microdilution method; assay type: functional
# [60] = system: Staphylococcus haemolyticus; experiment: Antimicrobial activity against Staphylococcus haemolyticus clinical isolates by broth microdilution method; assay type: functional
# [61] = Antimicrobial activity against erythromycin-susceptible Streptococcus Group G clinical isolates by broth microdilution method; assay type: functional; conditions: Streptococcus sp. 'group G'
# [62] = system: Staphylococcus haemolyticus; experiment: Antimicrobial activity against Staphylococcus haemolyticus clinical isolates assessed as percent susceptible isolates by broth microdilution method; assay type: functional
# Streptococcus pneumoniae [63] = experiment: Antimicrobial activity against penicillin-intermediate Streptococcus pneumoniae clinical isolates by broth microdilution method; assay type: functional
# [64] = system: Staphylococcus haemolyticus; experiment: Antimicrobial activity against Staphylococcus haemolyticus clinical isolates assessed as resistant isolates by broth microdilution method; assay type: functional
# Streptococcus pyogenes [65] = experiment: Antimicrobial activity against erythromycin-susceptible Streptococcus pyogenes clinical isolates assessed as percent susceptible isolates by broth microdilution method; assay type: functional
# [66] = system: Staphylococcus epidermidis; experiment: Antimicrobial activity against oxacillin-susceptible Staphylococcus epidermidis clinical isolates assessed as resistant isolates by broth microdilution method; assay type: functional
structure (smiles),measurement,setting,value
CC[C@H]1OC(=O)[C@H](C)[C@@H](O[C@H]2C[C@@](C)(OC)[C@@H](O)[C@H](C)O2)[C@H](C)[C@@H](O[C@@H]2O[C@H](C)C[C@H](N(C)C)[C@H]2O)[C@](C)(O)C[C@@H](C)C(=O)[C@H](C)[C@@H](O)[C@]1(C)O [ERYTHROMYCIN],MIC90,Streptococcus [1],2 µg/mL
same,Percent of isolates resistant,[2],75.3%
same,Percent of isolates resistant,[3],67.2%
same,MIC90,Streptococcus [4],> 2 µg/mL
same,Percent of isolates resistant,Staphylococcus aureus [5],35.9%
same,MIC90,[6],> 2 µg/mL
same,MIC90,Streptococcus pyogenes [7],> 2 µg/mL
same,Percent of isolates resistant,Streptococcus pneumoniae [8],11.6%
same,Activity,[9],53.8%
same,MIC90,Staphylococcus aureus [10],> 8 µg/mL
same,Percent resistant isolates,Staphylococcus aureus [11],65.3%
same,Activity,Staphylococcus aureus [12],8.4%
same,MIC90,Streptococcus pyogenes [13],> 2 µg/mL
same,Activity,Streptococcus pneumoniae [14],67.3%
same,Activity,Streptococcus agalactiae [15],70.6%
same,Activity,Streptococcus pyogenes [16],13.6%
same,MIC90,[17],> 8 µg/mL
same,Activity,[18],51.4%
same,Activity,Streptococcus pneumoniae [19],14.9%
same,Percent of isolates resistant,Streptococcus pneumoniae [20],58.8%
same,MIC90,Streptococcus pneumoniae [21],> 2 µg/mL
same,Activity,[22],0%
same,MIC,Streptococcus pneumoniae [23],> 0.03 µg/mL
same,MIC90,[24],> 8 µg/mL
same,Activity,[25],100%
same,MIC90,[26],0.06 µg/mL
same,MIC90,[27],2 µg/mL
same,Activity,Streptococcus agalactiae [28],0%
same,Activity,Streptococcus pyogenes [29],0%
same,MIC90,[30],> 2 µg/mL
same,Activity,[31],0%
same,Resistant isolates,Streptococcus pneumoniae [32],32.4%
same,Activity,[33],100%
same,Activity,Streptococcus agalactiae [34],100%
same,Activity,Streptococcus pneumoniae [35],88.1%
same,MIC90,Streptococcus agalactiae [36],0.06 µg/mL
same,MIC90,[37],2 µg/mL
same,Activity,[38],48.6%
same,Activity,Streptococcus agalactiae [39],28.7%
same,MIC90,Streptococcus pneumoniae [40],> 2 µg/mL
same,MIC90,Staphylococcus aureus [41],> 8 µg/mL
same,MIC90,Streptococcus pyogenes [42],0.06 µg/mL
same,Activity,[43],24.1%
same,Activity,Staphylococcus aureus [44],32.6%
same,Percent of isolates resistant,Streptococcus pneumoniae [45],84.5%
same,MIC90,[46],> 8 µg/mL
same,Activity,Streptococcus agalactiae [47],97.5%
same,Activity,[48],32.2%
same,Activity,Streptococcus pneumoniae [49],41.2%
same,Activity,[50],11.7%
same,Percent resistant isolates,Staphylococcus aureus [51],90.5%
same,MIC90,Streptococcus [52],0.06 µg/mL
same,Activity,Streptococcus pyogenes [53],99.2%
same,MIC90,Streptococcus agalactiae [54],> 2 µg/mL
same,Activity,Streptococcus pyogenes [55],86.3%
same,MIC,[56],≥ 0.12 µg/mL
same,Activity,[57],88.3%
same,MIC90,Streptococcus agalactiae [58],> 2 µg/mL
same,Activity,Staphylococcus aureus [59],60.7%
same,MIC90,[60],> 8 µg/mL
same,MIC90,[61],0.06 µg/mL
same,Activity,[62],21.6%
same,MIC90,Streptococcus pneumoniae [63],> 2 µg/mL
same,Resistant isolates,[64],78.4%
same,Activity,Streptococcus pyogenes [65],100%
same,Percent of isolates resistant,[66],45.4%
